Assay results: patent publication US6291467A, “Heteroaromatic derivatives” (priority 2000, dated 2001)
pIC50: −log10 of the molar value. Where a name gives a salt, the structure may show the parent alone.

Legend:
Dopamine D2 Receptor = Dopamine D2 Receptor (Rattus norvegicus, UniProt P61169); test: Dopamine D2 Receptor Binding Assay (displacement of [^3 H]raclopride); settings: rat striatum membrane, [^3 H]raclopride (1 nM), 25° C., an hour
Description: 2. Dopamine D2 Receptor Binding Assay
Rat striatum membrane was used as a receptor preparation.
[^3 H]raclopride was used as [^3 H]-labeled ligand.
A binding reaction using the [^3 H]-labeled ligand was carried out according to the following method as described in Mol. J. Pharmacol., 43, 749(1993).
Preparation of Receptor Preparation: Rat striatum was homogenized in 50 mM Tris-hydrochloric acid buffer (pH 7.4), centrifuged at 48,000×g, and the precipitate was washed once with a Tris-hydrochloric acid buffer. The precipitate was suspended in 50 mM Tris-hydrochloric acid buffer (pH 7.4) containing 120 mM NaCl, 1.5 mM KCl, 2 mM CaCl2 and 1 mM MgCl2 to give a membrane preparation.
Dopamine D2 Receptor Binding Assay: The membrane preparation (0.5 mg of protein/ml), [^3 H]raclopride (1 nM) and each test drug were reacted at 25° C. for an hour.
After completion of the reaction, the reaction solution was filtered by suction through a glass filter (GF/B), and the radioactivity on the filter was determined by a liquid scintillation spectrometer.
The binding under the reaction in the presence of 10 μM haloperidol was defined as non-specific binding of [^3 H]raclopride, and the difference between total binding and non-specific binding was defined as specific binding.

human D4.2 receptor = biological target: T1, human D4.2 receptor (Homo sapiens, UniProt P21917, DEL265-296); test: Dopamine D4 Receptor Binding Assay (displacement of [^3 H]spiperone); settings: human D4.2 in CHO cell membranes, pH 7.4, 27° C., 2 hours
T1 sequence (P21917 with tags, fused parts or gaps DEL265-296): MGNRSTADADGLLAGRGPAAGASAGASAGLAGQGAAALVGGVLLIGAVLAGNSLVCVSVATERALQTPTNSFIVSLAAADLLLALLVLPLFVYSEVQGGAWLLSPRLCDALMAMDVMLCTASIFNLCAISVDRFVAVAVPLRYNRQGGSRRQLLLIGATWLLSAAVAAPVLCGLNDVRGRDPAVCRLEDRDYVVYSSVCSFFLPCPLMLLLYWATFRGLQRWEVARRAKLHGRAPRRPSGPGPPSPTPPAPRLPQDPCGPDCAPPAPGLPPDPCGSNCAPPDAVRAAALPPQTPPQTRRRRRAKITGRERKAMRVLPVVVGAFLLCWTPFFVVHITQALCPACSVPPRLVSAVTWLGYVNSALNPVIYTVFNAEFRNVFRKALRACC
Description: 1. Dopamine D4 Receptor Binding Assay
Chinese hamster ovarium (CHO) cell membranes wherein human D4.2 receptor was expressed were used as a receptor preparation.
[^3 H]spiperone was used as [^3 H]-labeled ligand.
A binding reaction using the [^3 H]-labeled ligand was carried out according to the following method as described in Eur. J. Pharmacol., 233, 173(1993).
Dopamine D4.2 Receptor Binding Assay: The CHO cell membranes wherein human D4.2 receptor was expressed, [^3 H]spiperone ([…]) and each test drug were reacted in 50 mM Tris-hydrochloric acid buffer (pH 7.4) containing 5 mM EDTA, 1.5 mM CaCl2, 5 mM KCl and 120 mM NaCl at 27° C. for 2 hours.
After completion of the reaction, the reaction solution was filtered by suction through a glass filter (GF/B), and the radioactivity on the filter was measured by a liquid scintillation spectrometer.
The binding under the reaction in the presence of 10 μM haloperidol was defined as non-specific binding of [^3 H]spiperone, and the difference between the total binding and the non-specific binding was defined as specific binding.

[1] = system: drug-resistant schizophrenia and negativism; settings: clinical investigation, Arch. Gen. Psych., 45, 789-796 (1988); cited from earlier work
dopamine D4 receptors = settings: Nature, 350, 610-614 (1991); cited from earlier work
[2] = Summary and Clinical Data, Sandoz, Canada Inc. (1990); cited from earlier work

Sequence of Dopamine D2 Receptor (P61169 whole entry): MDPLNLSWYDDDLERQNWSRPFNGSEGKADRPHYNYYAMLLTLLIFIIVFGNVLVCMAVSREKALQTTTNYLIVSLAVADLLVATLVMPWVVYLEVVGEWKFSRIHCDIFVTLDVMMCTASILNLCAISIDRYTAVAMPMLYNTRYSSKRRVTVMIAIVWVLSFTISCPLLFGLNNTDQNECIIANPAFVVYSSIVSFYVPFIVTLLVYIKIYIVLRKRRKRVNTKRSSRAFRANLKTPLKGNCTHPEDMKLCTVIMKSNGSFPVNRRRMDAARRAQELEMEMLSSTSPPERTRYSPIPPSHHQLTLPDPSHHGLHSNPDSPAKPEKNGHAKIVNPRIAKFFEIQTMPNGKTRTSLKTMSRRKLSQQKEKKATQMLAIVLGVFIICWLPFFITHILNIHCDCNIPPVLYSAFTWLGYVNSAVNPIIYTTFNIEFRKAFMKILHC

SMILES	pIC50 (Dopamine D2 Receptor)	pIC50 (human D4.2 receptor)	also measured
Fc1ccc(C=C2CCN(CCc3cn[nH]c3-c3ccc(F)cc3)CC2)cc1 [Compound A-01]	6.82	8.91	
Fc1ccc(-c2[nH]ncc2CCN2CCC(=Cc3cccc(F)c3)CC2)cc1 [Compound A-02]	7.49	8.95	
Fc1ccc(-c2[nH]ncc2CCN2CCC(=Cc3ccccc3F)CC2)cc1 [Compound A-03, 5-(4-fluorophenyl)-4-[2-[4-(2-fluorobenzylidene)piperidin-1-yl]ethyl]pyrazole oxalate]	7.58	9.07	
Cc1ccc(-c2[nH]ncc2CCN2CCC(=Cc3ccc(F)cc3)CC2)cc1 [Compound A-04]	7.25	8.71	
Cc1ccc(C=C2CCN(CCc3cn[nH]c3-c3ccc(F)cc3)CC2)cc1 [Compound A-06]	6.77	8.55	
CSc1nc(-c2ccc(F)cc2)c(CCN2CCC(=Cc3cccc(F)c3)CC2)[nH]1 [Compound A-08]	7.21	8.95	
O=C(c1ccc(F)cc1)C1CCN(CCc2sc(O)nc2-c2ccc(F)cc2)CC1 [Compound A-09]	6.97	8.55	
Oc1nc(-c2ccc(F)cc2)c(CCN2CCC(=Cc3cccc(F)c3)CC2)s1 [Compound A-10, 2-hydroxy-4-(4-fluorophenyl)-5-[2-[4-(3-fluorobenzylidene)piperidin-1-yl]ethyl]thiazole]	7.13	8.71	
Fc1ccc(-c2ncncc2CCN2CCC(=Cc3ccccc3F)CC2)cc1 [Compound A-12, 4-(4-fluorophenyl)-5-[2-[4-(2-fluorobenzylidene)piperidin-1-yl]ethyl]pyrimidine dihydrochloride]	6.44	8.67	
Fc1ccc(-c2nc(S)ncc2CCN2CCC(=Cc3ccccc3F)CC2)cc1 [Compound A-13, 4-(4-fluorophenyl)-5-[2-[4-(2-fluorobenzylidene)piperidin-1-yl]ethyl]-2-mercaptopyrimidine]	< 6.00	8.87	
Nc1ncc(CCN2CCC(=Cc3ccccc3F)CC2)c(-c2ccc(F)cc2)n1 [Compound A-16]	6.89	8.71	
CN1CCN(C2=Nc3cc(Cl)ccc3Nc3ccccc32)CC1 [clozapine]			effect on drug-resistant schizophrenia and negativism [1]: effective on drug-resistant schizophrenia and negativism; extrapyramidal diseases [1]: hardly causes extrapyramidal diseases; affinity for dopamine D4 receptors relative to dopamine D2 receptors (dopamine D4 receptors): higher than that for dopamine D2 receptors; blood disorder (agranulocytosis) [2]: serious defect of causing blood disorder called agranulocytosis; death from agranulocytosis [2]: cases of death therefrom have been reported
